Source: patent US12714696B2, “Low dose fluralaner compositions for protection against parasitic invertebrate pest” (VIRBAC, priority 2019, dated 2026)
Values joined by “and” are separate entries in the source; they are usually repeats but may differ in a detail not shown here. Identical values can stand only once. Like-named read-outs stand apart in the source and are kept apart here.

Experiment: Pharmacokinetics after repeated oral administration of 250 μg/kg and 35 μg/kg of fluralaner in dogs after feeding
Assay type: in vivo, beagle dogs
Details: for concentration at 24 h / concentration at 48 h / concentration at 72 h / concentration at 96 h / concentration at 120 h / concentration at 144 h: beagle, dog, plasma, po
Protocol: The first objective is to obtain the pharmacokinetic parameters after repeated oral administration of […] and 35 μg/kg of fluralaner in dogs after feeding.
The second objective is to investigate the pharmacodynamics between the fluralaner plasmatic dose and the effectiveness against ticks. • IVP: Investigational Veterinary Product, is pure Fluralaner+DMSO (250 μg/kg on Days 0 to 3 (0.25 mL/kg), then 35 μg/kg on Days 4 to 9 (0.35 mL/kg), then 600 μg/kg on Day 11) • Control product is DMSO (0.25 mL/kg on Days 0 to 3, then 0.35 mL/kg on Days 4 to 9)
On Days 0, 1, 2 and 3, all dogs assigned to group 2 received the Investigational Veterinary Product. On Days 0 to 3 all dogs in group 1 received the control product at a volume equal to the dogs in group 2. Dogs assigned to group 1 received the control product and served as Placebo controls. The quantity of Investigational Veterinary Product and control product administered was calculated according to the dog's individual body weight measured on Day −1. […]
On days of administration of pre-Investigational Veterinary Product or Control Product, dogs were fed (the same dog food) approximately half of their normal daily ration 30 minutes to 35 minutes prior to administration. Food consumed by the time of administration was calculated and recorded. The remainder of their normal daily ration was fed immediately after administration.
The PK parameters of fluralaner were calculated using a non-compartmental approach.
The following rules were applied for the calculation of the PK parameters: • All the plasma concentrations, validated by the bioanalytical laboratory, were used for the PK analysis. • The actual blood sampling times were used throughout. • Concentrations below the Limit of Quantification (LOQ) value were considered as zero from time zero (pre-dose) up to the time at which the first quantifiable concentration above the LOQ value was observed. Concentrations below the LOQ value between two quantifiable concentrations were considered as missing. Trailing concentrations below the LOQ value were not used in calculations.
Cmax the observed maximum concentration in plasma measured after dosing.
λz the terminal rate constant (λz) was estimated by log-linear regression analysis on data points visually assessed, to be on the terminal log-linear phase. For the slope of the terminal elimination phase to be accepted as reliable, the following criteria were used: • the terminal data points were apparently randomly distributed about a single straight line (on visual inspection), • a minimum of three data points, including the last measured data point and excluding Cmax, were available for the regression.
t1/2 the terminal plasma half-life (t1/2) was calculated according to the following equation: […]

Cc1cc(C2=NOC(c3cc(Cl)cc(Cl)c3)(C(F)(F)F)C2)ccc1C(=O)NCC(=O)NCC(F)(F)F (stereo not drawn) [fluralaner, Fluralaner]
fluralaner concentration levels, individual animal (24 h, oral 250 μg/kg Days 0-3, 35 μg/kg Days 4-9, 600 μg/kg Day 11, dogs): 142 ng/mL and 158 ng/mL and 129 ng/mL
fluralaner concentration levels, individual animal (48 h, oral 250 μg/kg Days 0-3, 35 μg/kg Days 4-9, 600 μg/kg Day 11, dogs): 269 ng/mL and 283 ng/mL and 253 ng/mL
fluralaner concentration levels, individual animal (72 h, oral 250 μg/kg Days 0-3, 35 μg/kg Days 4-9, 600 μg/kg Day 11, dogs): 381 ng/mL and 378 ng/mL and 373 ng/mL
fluralaner concentration levels, individual animal (96 h, oral 250 μg/kg Days 0-3, 35 μg/kg Days 4-9, 600 μg/kg Day 11, dogs): 496 ng/mL and 572 ng/mL and 515 ng/mL
fluralaner concentration levels, individual animal (120 h, oral 250 μg/kg Days 0-3, 35 μg/kg Days 4-9, 600 μg/kg Day 11, dogs): 465 ng/mL and 535 ng/mL and 554 ng/mL
fluralaner concentration levels, individual animal (144 h, oral 250 μg/kg Days 0-3, 35 μg/kg Days 4-9, 600 μg/kg Day 11, dogs): 510 ng/mL and 447 ng/mL and 454 ng/mL
fluralaner concentration levels, individual animal (168 h, oral 250 μg/kg Days 0-3, 35 μg/kg Days 4-9, 600 μg/kg Day 11, dogs): 521 ng/mL and 536 ng/mL and 520 ng/mL
fluralaner concentration levels, individual animal (192 h, oral 250 μg/kg Days 0-3, 35 μg/kg Days 4-9, 600 μg/kg Day 11, dogs): 456 ng/mL and 558 ng/mL and 455 ng/mL
fluralaner concentration levels, individual animal (216 h, oral 250 μg/kg Days 0-3, 35 μg/kg Days 4-9, 600 μg/kg Day 11, dogs): 468 ng/mL and 551 ng/mL and 472 ng/mL and 493 ng/mL
fluralaner concentration levels, individual animal (240 h, oral 250 μg/kg Days 0-3, 35 μg/kg Days 4-9, 600 μg/kg Day 11, dogs): 423 ng/mL and 368 ng/mL and 724 ng/mL and 422 ng/mL
fluralaner concentration levels, individual animal (384 h, oral 250 μg/kg Days 0-3, 35 μg/kg Days 4-9, 600 μg/kg Day 11, dogs): 893 ng/mL and 523 ng/mL and 715 ng/mL and 1000 ng/mL
fluralaner concentration levels, individual animal (528 h, oral 250 μg/kg Days 0-3, 35 μg/kg Days 4-9, 600 μg/kg Day 11, dogs): 267 ng/mL and 373 ng/mL and 235 ng/mL and 517 ng/mL and 283 ng/mL
fluralaner concentration levels, individual animal (624 h, oral 250 μg/kg Days 0-3, 35 μg/kg Days 4-9, 600 μg/kg Day 11, dogs): 223 ng/mL and 280 ng/mL and 182 ng/mL and 403 ng/mL and 227 ng/mL
fluralaner concentration levels, individual animal (720 h, oral 250 μg/kg Days 0-3, 35 μg/kg Days 4-9, 600 μg/kg Day 11, dogs): 285 ng/mL and 275 ng/mL and 248 ng/mL and 187 ng/mL
steady state concentrations (after the fourth dose application 250 μg/kg per day (on Day 3)): not been reached
concentration at 24 h (24 h, oral 250 μg/kg Days 0-3, 35 μg/kg Days 4-9, 600 μg/kg Day 11, dogs, read-out: fluralaner concentration levels, individual animal): 160 ng/mL
concentration at 24 h (24 h, oral 250/35/600 μg/kg regimen, dogs, n=6, read-out: fluralaner concentration levels, GeoMean): 145 ng/mL
concentration at 24 h (24 h, oral 250/35/600 μg/kg regimen, dogs, n=6, read-out: fluralaner concentration levels, Maximum): 160 ng/mL
concentration at 24 h (24 h, oral 250/35/600 μg/kg regimen, dogs, n=6, read-out: fluralaner concentration levels, Mean): 146 ng/mL
concentration at 24 h (24 h, oral 250/35/600 μg/kg regimen, dogs, n=6, read-out: fluralaner concentration levels, Median): 146 ng/mL
concentration at 24 h (24 h, oral 250/35/600 μg/kg regimen, dogs, n=6, read-out: fluralaner concentration levels, Minimum): 129 ng/mL
concentration at 48 h (48 h, oral 250 μg/kg Days 0-3, 35 μg/kg Days 4-9, 600 μg/kg Day 11, dogs, read-out: fluralaner concentration levels, individual animal): 257 ng/mL
concentration at 48 h (48 h, oral 250/35/600 μg/kg regimen, dogs, n=6, read-out: fluralaner concentration levels, GeoMean): 269 ng/mL
concentration at 48 h (48 h, oral 250/35/600 μg/kg regimen, dogs, n=6, read-out: fluralaner concentration levels, Maximum): 312 ng/mL
concentration at 48 h (48 h, oral 250/35/600 μg/kg regimen, dogs, n=6, read-out: fluralaner concentration levels, Mean): 270 ng/mL
concentration at 48 h (48 h, oral 250/35/600 μg/kg regimen, dogs, n=6, read-out: fluralaner concentration levels, Median): 263 ng/mL
concentration at 48 h (48 h, oral 250/35/600 μg/kg regimen, dogs, n=6, read-out: fluralaner concentration levels, Minimum): 245 ng/mL
concentration at 72 h (72 h, oral 250 μg/kg Days 0-3, 35 μg/kg Days 4-9, 600 μg/kg Day 11, dogs, read-out: fluralaner concentration levels, individual animal): 366 ng/mL
concentration at 72 h (72 h, oral 250/35/600 μg/kg regimen, dogs, n=6, read-out: fluralaner concentration levels, GeoMean): 386 ng/mL
concentration at 72 h (72 h, oral 250/35/600 μg/kg regimen, dogs, n=6, read-out: fluralaner concentration levels, Maximum): 469 ng/mL
concentration at 72 h (72 h, oral 250/35/600 μg/kg regimen, dogs, n=6, read-out: fluralaner concentration levels, Mean): 388 ng/mL
concentration at 72 h (72 h, oral 250/35/600 μg/kg regimen, dogs, n=6, read-out: fluralaner concentration levels, Median): 376 ng/mL
concentration at 72 h (72 h, oral 250/35/600 μg/kg regimen, dogs, n=6, read-out: fluralaner concentration levels, Minimum): 361 ng/mL
concentration at 96 h (96 h, oral 250 μg/kg Days 0-3, 35 μg/kg Days 4-9, 600 μg/kg Day 11, dogs, read-out: fluralaner concentration levels, individual animal): 497 ng/mL
concentration at 96 h (96 h, oral 250/35/600 μg/kg regimen, dogs, n=6, read-out: fluralaner concentration levels, GeoMean): 524 ng/mL
concentration at 96 h (96 h, oral 250/35/600 μg/kg regimen, dogs, n=6, read-out: fluralaner concentration levels, Maximum): 602 ng/mL
concentration at 96 h (96 h, oral 250/35/600 μg/kg regimen, dogs, n=6, read-out: fluralaner concentration levels, Mean): 526 ng/mL
concentration at 96 h (96 h, oral 250/35/600 μg/kg regimen, dogs, n=6, read-out: fluralaner concentration levels, Median): 506 ng/mL
concentration at 96 h (96 h, oral 250/35/600 μg/kg regimen, dogs, n=6, read-out: fluralaner concentration levels, Minimum): 471 ng/mL
concentration at 120 h (120 h, oral 250 μg/kg Days 0-3, 35 μg/kg Days 4-9, 600 μg/kg Day 11, dogs, read-out: fluralaner concentration levels, individual animal): 495 ng/mL
concentration at 120 h (120 h, oral 250/35/600 μg/kg regimen, dogs, n=6, read-out: fluralaner concentration levels, GeoMean): 508 ng/mL
concentration at 120 h (120 h, oral 250/35/600 μg/kg regimen, dogs, n=6, read-out: fluralaner concentration levels, Maximum): 554 ng/mL
concentration at 120 h (120 h, oral 250/35/600 μg/kg regimen, dogs, n=6, read-out: fluralaner concentration levels, Mean): 509 ng/mL
concentration at 120 h (120 h, oral 250/35/600 μg/kg regimen, dogs, n=6, read-out: fluralaner concentration levels, Median): 515 ng/mL
concentration at 120 h (120 h, oral 250/35/600 μg/kg regimen, dogs, n=6, read-out: fluralaner concentration levels, Minimum): 465 ng/mL
concentration at 144 h (144 h, oral 250 μg/kg Days 0-3, 35 μg/kg Days 4-9, 600 μg/kg Day 11, dogs, read-out: fluralaner concentration levels, individual animal): 497 ng/mL
concentration at 144 h (144 h, oral 250/35/600 μg/kg regimen, dogs, n=6, read-out: fluralaner concentration levels, GeoMean): 491 ng/mL
concentration at 144 h (144 h, oral 250/35/600 μg/kg regimen, dogs, n=6, read-out: fluralaner concentration levels, Maximum): 550 ng/mL
concentration at 144 h (144 h, oral 250/35/600 μg/kg regimen, dogs, n=6, read-out: fluralaner concentration levels, Mean): 492 ng/mL
concentration at 144 h (144 h, oral 250/35/600 μg/kg regimen, dogs, n=6, read-out: fluralaner concentration levels, Median): 496 ng/mL
concentration at 144 h (144 h, oral 250/35/600 μg/kg regimen, dogs, n=6, read-out: fluralaner concentration levels, Minimum): 447 ng/mL
